Test results from article PMC11249646, “Small-Molecule Disruptors of the Interaction between Calcium- and Integrin-Binding Protein 1 and Integrin αIIbβ3 as Novel Antiplatelet Agents” (ACS Pharmacology & Translational Science, 2024).
Where two headings read alike, the source gives them in different places.

Assays:
[1] = molecular target: T1, CIB1 and αIIb interaction (CIB1-GST : F-αIIb peptide) (Homo sapiens, UniProt Q99828); assay: FP assay, 1536-well qHTS format (primary and confirmatory screen); type: binding; details: for Curve Class (confirmatory screen) / CONFIRMATORY SCREEN Curve Class: qHTS curve class
T1 construct: made in house; host or cells: BL-21 plus RIL cells (E. coli)
T1 sequence (Q99828 1-191): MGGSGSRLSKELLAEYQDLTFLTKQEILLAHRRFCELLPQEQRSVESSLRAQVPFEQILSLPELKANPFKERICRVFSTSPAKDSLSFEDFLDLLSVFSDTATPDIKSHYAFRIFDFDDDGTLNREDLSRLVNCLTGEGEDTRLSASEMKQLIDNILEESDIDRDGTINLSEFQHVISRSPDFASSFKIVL

[2] = molecular target: T2, GST-CIB1 : F-scrambled peptide (Homo sapiens, UniProt Q99828); assay: FP scrambled-peptide counter screen, 1536-well format; type: binding; details: for Curve Class (counterscreen) / COUNTERSCREEN Curve Class: qHTS curve class; for IC50: read-out: IC50 [μM] (counterscreen); for Confirm? (counterscreen): YES/NO
T2 construct: made in house; host or cells: BL-21 plus RIL cells (E. coli)
T2 sequence (Q99828 1-191): T1 sequence (Q99828 1-191)

[3] = Table S3, confirmatory screen, a negative sign marks inhibitory curves
[4] = Table S3, confirmatory screen, negative = inhibition
[5] = Table S3, counterscreen, a negative sign marks inhibitory curves
[6] = Table S3, counterscreen, negative = inhibition
[7] = qHTS primary screen hits, Table S2, negative = inhibition
[8] = qHTS primary screen hits, Table S2, negative sign = inhibitory curve, several classes where COUNT > 1
[9] = qHTS primary screen hits, Table S2, read-out: IC50
[10] = confirmatory screen, negative sign = inhibitory curve
[11] = confirmatory screen, read-out: IC50 [μM] (confirmatory screen)
[12] = qHTS FP screen hits, Table S2, negative = inhibition
[13] = qHTS FP screen hits, Table S2, one class per curve where COUNT > 1, negative sign = inhibitory curve
[14] = qHTS FP screen hits, Table S2, read-out: IC50
[15] = counterscreen, negative sign = inhibitory curve
[16] = scrambled-peptide counterscreen

Efficacy (%) (confirmatory screen) ([1]; confirmatory screen) | Confirm? (confirmatory screen) ([1]; confirmatory screen, YES/NO) | Curve Class (confirmatory screen) [1, 10] | IC50 [1, 11] | Efficacy (%) (counterscreen) ([2]; counterscreen) | Curve Class (counterscreen) [2, 15] | IC50 ([2]; counterscreen) | SMILES | Efficacy (%) [1, 12] | Curve Class [1, 13] | IC50 [1, 14] | also measured
– | – | – | – | – | – | – | O=C(O)c1cc(/N=N/c2ccc(S(=O)(=O)Nc3ccccn3)cc2)ccc1O [NCGC00090903-09] | – | – | – | Confirm? (confirmatory screen) ([1]; Table S3, confirmatory screen, YES/NO call): YES; Curve Class (confirmatory screen) [1, 3]: -1.2; Efficacy (%) (confirmatory screen) [1, 4]: -64%; IC50 ([1]; Table S3, confirmatory screen, read-out: IC50 [μM] (confirmatory screen)): 22.4 µM; Curve Class (counterscreen) [2, 5]: -2.2; Efficacy (%) (counterscreen) [2, 6]: -61%; IC50 ([2]; Table S3, counterscreen): 39.8 µM
– | – | – | – | – | – | – | CC(=O)[O][Hg][c]1ccccc1 [NCGC00091050-09] | – | – | – | Curve Class (confirmatory screen) [1, 3]: 4; Efficacy (%) (confirmatory screen) [1, 4]: 41%; Efficacy (%) [1, 7]: -59%; Curve Class [1, 8]: -1.2; IC50 [1, 9]: 7.9 µM; Curve Class (counterscreen) [2, 5]: 2.3; Efficacy (%) (counterscreen) [2, 6]: 145%
– | – | – | – | – | – | – | COc1cc([C@H]2Oc3cc([C@H]4Oc5cc(O)cc(O)c5C(=O)[C@@H]4O)ccc3O[C@@H]2CO)ccc1O [NCGC00091057-05] | – | – | – | CONFIRMATORY SCREEN Efficacy (%) ([1]; confirmatory screen): -30%; CONFIRMATORY SCREEN Curve Class ([1]; confirmatory screen): 4; COUNTERSCREEN Efficacy (%) ([2]; counterscreen): 0%; COUNTERSCREEN Curve Class ([2]; counterscreen): 4
-127% | YES | -1.1 | 50.1 µM | -105% | -2.1 | 63.1 µM | Nc1ccc(O)c([N+](=O)[O-])c1 [NCGC00091261-03] | -59% | -2.2 | 113 µM | –
– | – | – | – | – | – | – | CN(C)C(=S)SSC(=S)N(C)C [NCGC00091563-12] | -71% | -2.2 | – | IC50 ([1]; IC50 [μM]): 39.8 µM; CONFIRMATORY SCREEN Confirm? ([1]; confirmatory screen, YES/NO call): YES; CONFIRMATORY SCREEN Curve Class [1, 10]: -1.2; CONFIRMATORY SCREEN Efficacy (%) ([1]; confirmatory screen, negative = inhibition): -67%; IC50 ([1]; confirmatory screen, read-out: CONFIRMATORY SCREEN IC50): 7.1 µM; COUNTERSCREEN Efficacy (%) [2, 16]: 14%; COUNTERSCREEN Confirm? ([2]; scrambled-peptide counterscreen, YES/NO call): YES; COUNTERSCREEN Curve Class [2, 16]: 4
-145% | YES | -1.1 | 35.5 µM | -107% | -1.1 | 31.6 µM | CCCC(=O)c1cc(O)c(O)cc1O [NCGC00091839-03] | -92% | – | 105 µM | –
– | – | – | – | – | – | – | NC(=O)c1ncn([C@@H]2O[C@H](CO)[C@@H](O)[C@H]2O)c1O [NCGC00094087-05] | – | – | – | CONFIRMATORY SCREEN Efficacy (%) ([1]; confirmatory screen): -5.43%; CONFIRMATORY SCREEN Curve Class ([1]; confirmatory screen): 4; Efficacy (%) [1, 7]: -52%; Curve Class [1, 8]: -1.2; IC50 [1, 9]: 20 µM; COUNTERSCREEN Efficacy (%) ([2]; counterscreen): 0%; COUNTERSCREEN Curve Class ([2]; counterscreen): 4
-95% | YES | -2.2 | 39.8 µM | -68% | -1.2 | 12.6 µM | C[C@H](Cc1ccc(O)c(O)c1)[C@@H](C)Cc1ccc(O)c(O)c1 [NCGC00094201-01] | – | – | – | Efficacy (%) [1, 7]: -32%; Curve Class [1, 8]: -2.4; IC50 [1, 9]: 27.1 µM
-31% | YES | -3 | 44.7 µM | 82% | 3 | 100 µM | NC[C@@H](O)c1ccc(O)c(O)c1.O=C(O)C(O)C(O)C(=O)O [NCGC00094737-04] | – | – | – | Confirm? (counterscreen) ([2]; counterscreen): YES

SMILES | Efficacy (%) (confirmatory screen) ([1]; confirmatory screen) | Confirm? (confirmatory screen) ([1]; confirmatory screen, YES/NO) | Curve Class (confirmatory screen) [1, 10] | IC50 [1, 11] | Efficacy (%) (counterscreen) ([2]; counterscreen) | Curve Class (counterscreen) [2, 15] | IC50 ([2]; counterscreen) | Efficacy (%) [1, 12] | Curve Class [1, 13] | IC50 [1, 14] | also measured
Oc1ccc(Cl)cc1Cc1cc(Cl)ccc1O [NCGC00091325-09] | -77% | YES | -2.2 | 44.7 µM | -38% | -1.2 | 10 µM | -86% | -2.2 | 79.4 µM | –
CCOC(=O)CC(SP(=S)(OC)OC)C(=O)OCC (stereo not drawn) [NCGC00091902-08] | -93% | YES | -2.2 | 100 µM | -27% | -1.4 | 20 µM | -52% | -2.2 | 119 µM | Confirm? (counterscreen) ([2]; counterscreen): YES
